The values that follow come from US12385900B2, “Method for evaluating cytotoxicity of gas” (DAIKIN INDUSTRIES, LTD., priority 2018, dated 2025).

Series [1] concerns Human iPS cell-derived cardiomyocytes (iCell cardiomyocytes^2, CDI). Briefly: Cytotoxicity evaluation test: number of beats of cardiomyocytes during gas flow onto the cell culture medium. It counts as cell-based. The protocol: Human iPS cell-derived cardiomyocytes (iCell cardiomyocytes^2, CDI) were seeded into a 96-well half-area plate at a density of 40,000 cells/well, followed by culture in an incubator for 7 to 10 days. Subsequently, a Ca indicator (EarlyTox Cardiotoxicity Kit, Molecular Devices) was added at 30 μL/well to the cardiomyocytes. Subsequently, chlorodifluoromethane (Example) or difluoromethane (Reference Example) was allowed to flow onto the surface of the cell culture medium in a closed vessel at a flow rate of 50 mL/min. During the flow, the cell culture medium was maintained at a pH of 7.4, a temperature of 37° C., and an air pressure in the incubator of 101.3 kPa. The number of beats of cardiomyocytes from the start of the flow to 10 minutes after the start of the flow was measured by a fluorescence measurement with a confocal quantitative image cytometer (CQ1, Yokogawa Electric Corporation).

The test system of a further series is heart. The note with it: reported / known; cited from earlier work.

In the case of `FC(F)Cl` [chlorodifluoromethane], the “increase in the number of beats” value in series [1] (10 minutes after the start of the flow) was 74%. Further, the “Average number of beats (beats/30 sec)” value in series [1] (exposure time 0 min (start of flow), gas flow 50 mL/min onto medium surface, pH 7.4, 37° C., 101.3 kPa) is reported as 14.5 beats/30 sec; in series [1] (exposure time 10 min, gas flow 50 mL/min onto medium surface, pH 7.4, 37° C., 101.3 kPa), 25.3 beats/30 sec. Further, in the series with heart, the “effects on the heart” value was “has effects on the heart”.

For the molecule `FCF` [difluoromethane], the “change in the number of beats of cardiomyocytes” value in series [1] is “almost no change”. Moreover, the “Average number of beats (beats/30 sec)” value in series [1] (human, 0 min, pH 7.4) was 16.1 beats/30 sec; in series [1] (human, 10 min, pH 7.4), 16.5 beats/30 sec. Besides, the “effects on the heart” value in the series with heart was “no significant effects on the heart”.
